Laboratory results: US20080220471A1, “Vectors and Methods Using Same” (Genentech, Inc., priority 2005, published 2008)
Entries after “also recorded” stand apart in the source; their conditions may differ.

Assays:
[1] = test system: BRAF; assay: BRAF knockdown in melanoma cell clones (immunoblot densitometry, quantitative PCR); format: cell-based, human; details: melanoma cell clones expressing inducible BRAF shRNA
From the text: FIG. 10: Inducible knockdown of BRAF expression prevents melanoma tumor growth. (A). Schematic representation of a retroviral vector for tetracycline/doxycycline-inducible synthesis of shRNA. The Tet-repressor is constitutively expressed from the β-actin promoter and H1 RNA polymerase III promoter-driven transcription is thereby repressed in the absence of Dox by binding of the TetR protein to the Tet-responsive element sequence located immediately downstream of the TATA box. Addition of Dox results in dissociation of the TetR protein and derepression of the shRNA transcriptional unit. TATA, TATA box; TRE, Tet-responsive element; TetR, Tet-repressor protein; IRES, internal ribosomal entry site; PURO, puromycin resistance gene; LTR, long terminal repeat. B. Experimental validation of BRAF knockdown in melanoma cell lines. […] Lysates were then analyzed by immunoblotting. […]
We generated stable cells that expressed the inducible shRNA retroviral vector shown in FIG. 10A (based on pHUSH-GW). […] In the uninduced state, cells expressing the inducible hairpins were not altered in their baseline growth properties and no discernable background expression could be detected (data not shown). […] BRAF knockdown was reversible and time-dependent, with the maximal mRNA depletion detected 2 days post induction and the corresponding protein depletion occurring at day 3.

[2] = test system: LOX-IMVI tumors; assay: LOX-IMVI inducible shRNA subcutaneous xenograft; format: in vivo; details: for tumor growth: 2 mg/ml Dox plus 5% sucrose in drinking water, start at 100-150 mm^3
Protocol: (§1) Six- to 8-week-old female athymic nu/nu mice or scid-beige mice were purchased from Charles River Laboratories. To assay for BRAF role in subcutaneous tumor models, mice were injected in the right flank with either 3×10^6 human LOX-IMVI or 1×10^7 human A375 TASK121-shRNA containing cell clones in 200 μL phosphate-buffered saline (PBS). When tumors reached a mean volume of 100-150 mm^3 the mice with similarly sized tumors were grouped into treatment cohorts. Mice received 5% sucrose only or 5% sucrose plus 1-2 mg/ml doxycycline for control and knockdown cohorts, respectively. All water bottles were changed 3 times per week. Tumors were measured with calipers and mice weighed twice per week. Mice whose tumors reach 2000 mm^3 were euthanized. At the end of the dosing study, or as indicated, appropriate tumor samples were taken. Each treatment group consisted of 7-10 mice and results are presented as mean tumor volume ±standard deviation (FIGS. 10C-E).

[3] = test system: A375M-luc/shRNA-BRAF cells; assay: A375M-luc systemic (metastatic) tumor model, survival and bioluminescence; format: in vivo, scid-beige mice; details: 1 mg/ml Dox in drinking water (Dox-mediated BRAF knockdown); i.v. 4×10^5 A375M-luc/shRNA-BRAF cells
Protocol: To evaluate the efficacy of TASK121 knockdown in this model, cohorts of mice with similarly increasing tumor burden were divided into treatment groups. Scid-beige mice were injected intraperitoneally with […] 200 mg/kg D-luciferin (Biotium, Hayward, Calif.) and anesthetized using isoflurane. During image acquisition in a light-tight box, the animal was maintained on isoflurane via nose cone, and body temperature was maintained using a warming pad. Bioluminescence images were acquired using a cooled intensified charge-coupled device camera in an in vivo imaging system (Xenogen, Alameda, Calif.). Image acquisition times were about 1 minute. Images were processed by co-registering a reference image with a thresholded bioluminescence data image.
For metastatic tumor models, female scid-beige mice were injected intravenously with 50 μL PBS containing 4×10^5 A375M-luc shRNA cell clones. Tumor progression was monitored by weekly bioluminescence imaging for luciferase and mice were monitored daily for survival. At least 9 mice were used for each cohort. […] This is a promising strategy to inhibit certain metastatic tumors.

[4] = test system: tumor; details: Teicher et al. 2002; cited from earlier work
[5] = test system: A375 tumors; assay: A375 inducible shRNA subcutaneous xenograft; format: in vivo, athymic nu/nu mice; details: 2 mg/ml Dox in drinking water
Protocol: as §1

[6] = test system: pGL3-mu-p53 (murine p53 sequences); assay: Luciferase-based transient co-transfection comparing shRNA and miRNA vectors against p53; format: cell-based; details: p53-1 sequence, higher transfection ratios
From the text: FIG. 15: Luciferase-based transient co-transfection experiments compared shRNA and miRNA inducible expression vector performance. A. Comparison of H1-shRNA and CMV-miR vectors corresponding to murine p53 sequences transfected at 7.5:1, 5:1 and 2.5:1 shRNA:pGL3-mu-p53. B. The removal of the EmGFP leader rendered miR-p53-1 non-functional at a co-transfection ratio of 10:1.
In order to compare the efficacy of shRNA versus miRNA design, two effective miRNAs directed against p53 were converted to H1-shRNAs by identifying the 21-22 nt active siRNA within the miRNA scaffold and then by converting these active siRNAs back to N19 shRNAs. In addition, we examined the effect of having a linker sequence upstream of the miRNA. The following oligonucleotides were used in this study: […]

[7] = test system: pHUSH shGL3 clone B11 tumors; assay: Tumor volume of pHUSH shGL3 clone B11 tumors at each Dox concentration; format: in vivo, mice; details: luciferase-targeting shRNA
Protocol: FIG. 6: (A) The relative change in mean bioluminescence at each time point and treatment condition (n=5 mice per doxycycline dose). […] In addition to the luciferase expression analysis, tumor volume measurements were recorded for the pHUSH shGL3 clone B11 at each concentration of doxycycline.
To determine whether Dox or shRNA expression influenced tumor growth in vivo, tumor volume measurements were recorded for the tumors at each concentration of Dox.

[8] = test system: TetR protein; assay: Western analysis of TetR protein expression in transiently transfected 293T cells; format: cell-based; details: transient transfection, compared to wildtype TetR coding sequence
Protocol: To confirm that codon optimization of the TetR coding region increased expression of the TetR protein, Western analysis was performed. Briefly, plasmids containing the retroviral backbone comprising either wild type TetR (WT) or the codon optimized TetR (OPT) were transiently transfected into 293T cells using lipofectin (commercially available from GIBCO-BRL, Gaithersburg, Md.). Cell lysates were prepared by addition of 50 mM HEPES pH 7.4, 100 mM NaCl, 50 mM NaF, 5 mM B-glycerophosphate, 2 mM EGTA, 1 mM Na vanadate, 1% TX100 to a cell pellet, resolved on a 4-12% acrylamide gel and transferred to a PVDF membrane. Membranes were sequentially probed with Mouse α-TetR (1:5000; MolBiTec) and Rabbit α-Tubulin-HRP (1:5000, Santa Cruz Biotech, Santa Cruz, Calif.). […] “Ev” signifies negative control using retroviral vector lacking a shRNA cassette.

## C[C@H]1c2cccc(O)c2C(=O)C2=C(O)[C@]3(O)C(=O)C(C(N)=O)=C(O)[C@@H](N(C)C)[C@@H]3[C@@H](O)[C@@H]21 [Dox, 1-dimethylamino-2,4-a,5,7,12-pentahydroxy-11-methyl-4,6-dioxo-1,4a,11,11a,12,12a-hexahydrotetracene-3-carboxamide]
[1]
  Dox IC50 for suppression of BRAF protein levels: approximately 5 ng/ml
[2]; 2 mg/ml Dox plus 5% sucrose vs 5% sucrose
  body weight between treatment groups: no difference in body weight
[2]; 2 mg/ml Dox via drinking water, LOX-IMVI and A375 xenograft experiments
  lethality or weight loss: No lethality or weight loss was observed
[2]; pHUSH vector system, drinking water
  lower threshold for in vivo expression of the shRNA: ~0.02 mg/mL
[3]
  median survival: 33.4 days

## Cl.Cn1cc(C2=C(c3cn(C4CCN(Cc5ccccn5)CC4)c4ccccc34)C(=O)NC2=O)c2ccccc21 [317615-HCL]
[4]
  anti-tumor effect: anti-tumor effect

B1: GFP control shRNA: EGFP shRNA (SEQ ID NO:17/18) control hairpin in pHUSH (nucleic acid)
sense: GATCCCCAGATCCGCCACAACATCGATTCAAGAGATCGATGTTGTGGCGGATCTTGTTTTTTGGAAA
antisense: AGCTTTTCCAAAAAACAAGATCCGCCACAACATCGATCTCTTGAATCGATGTTGTGGCGGATCTGGG
[5]
  tumor growth: no discernable effect on tumor growth; also recorded: did not affect tumor growth kinetics

B2: H1-shRNA-p53-1: H1 promoter N19 shRNA converted from the p53-1 miRNA (nucleic acid)
DNA: GATCCCCAGTACGTGCACATAACAGACTTTCAAGAGAAGTCTGTTGTGCACGTACTTTTTTTGGAAA
[6]
  knockdown compared to CMV-miR: slight increase in knockdown

B3: Luciferase control shRNA: shRNA targeting the luciferase coding region (SEQ ID NO:9 / 15) in pHUSH (nucleic acid)
sense: GATCCCCCTTACGCTGAGTACTTCGATTCAAGAGATCGAAGTACTCAGCGTAAGTTTTTTGGAAA
antisense: AGCTTTTCCAAAAAACTTACGCTGAGTACTTCGATCTCTTGAATCGAAGTACTCAGCGTAAGGGG
[7]
  influence on tumor growth in vivo (tumor volume): does not influence tumor growth in vivo
[2]
  tumor growth: did not affect tumor growth kinetics
[2]; listed as control shRNA directed against Luciferase
  tumor growth: continued to increase in size

B4: codon optimized TetR: TetR coding region codon optimized for mammalian expression (SEQ ID NO:1) (nucleic acid)
DNA: ATGTCCAGACTGGATAAGTCCAAGGTGATTAATTCCGCTCTGGAACTCCTGAACGAGGTCGGCATCGAGGGACTGACCACACGGAAGCTGGCTCAGAAACTCGGCGTCGAACAGCCTACCCTCTACTGGCATGTCAAAAATAAGAGAGCCCTCCTGGACGCCCTGGCTATCGAGATGCTGGACAGACACCACACCCACTTCTGCCCCCTGGAAGGCGAATCCTGGCAGGATTTCCTCCGGAACAACGCTAAAAGCTTTAGATGCGCCCTCCTCAGCCATAGAGACGGAGCTAAAGTGCACCTGGGAACCCGGCCTACAGAAAAACAGTACGAGACACTGGAAAACCAGCTCGCTTTCCTCTGCCAACAAGGCTTTAGCCTGGAAAACGCCCTCTACGCTCTCAGCGCTGTCGGCCATTTTACACTGGGCTGCGTGCTCGAGGACCAGGAGCACCAAGTGGCTAAAGAGAGCGGGAAACCCCTACCACCGATAGCATGCCCCCCCTGCTGAGACAAGCCATTGAGCTCTTTGATCATCAGGGAGCTGAACCCGCCTTCCTCTTTGGACTCGAACTCATTATTTGCGGACTCGAGAAGCAACTGAAATGCGAAAGCGGAAGCGCCTACTCCGGCTCCAGAGAATTTCGGTCCTACTAG
modifications: Codon-optomized TetR
[8]
  expression of the TetR protein: significantly increased expression of the TetR protein
